The target in data set [1] is T1, human GLP-1 receptor (Homo sapiens, UniProt P43220).
T1 construct: expressed in transfected cells; host or cells: BHK cells (parent line BHKTS13), clone FCW467-12A; membrane preparation
The data set is described as follows: GLP-1 receptor binding: competitive binding assay (125I-GLP-1, SPA) on isolated membranes at low and high HSA.

Data set [2] is described as follows: in vivo. The note with it: male, Göttingen, minipig, iv.
Description: The purpose of this study is to determine the protraction in vivo of the GLP-1 derivatives after i.v. administration to minipigs, i.e. the prolongation of their time in the body and thereby their time of action. This is done in a pharmacokinetic (PK) study, where the terminal half-life of the derivative in question is determined. By terminal half-life is meant the time it takes to halve a certain plasma concentration in the terminal elimination phase.
Male Göttingen minipigs were obtained from Ellegaard Göttingen Minipigs (Dalmose, Denmark) approximately 7-14 months of age and weighing approximately 16-35 kg were used in the studies. The minipigs were housed either individually (pigs with permanent catheters) or in a group and fed restrictedly once or twice daily with SDS minipig diet (Special Diets Services, Essex, UK).
After at least 2 weeks of acclimatisation two permanent central venous catheters were implanted in vena cava caudalis or cranialis in each animal. The animals were allowed 1 week recovery after the surgery, and were then used for repeated pharmacokinetic studies with a suitable wash-out period between successive GLP-1 derivative dosings.
Blood samples (for example 0.8 ml) were collected in EDTA buffer (8 mM) and then centrifuged at 4° C. and 1942G for 10 minutes.
Plasma was pipetted into Micronic tubes on dry ice, and kept at −20° C. until analysed for plasma concentration of the respective GLP-1 compound using LOCI. Individual plasma concentration-time profiles were analyzed by a non-compartmental pharmacokinetic method in Phoenix v. 6.2 (Pharsight Inc., Mountain View, Calif., USA), or other relevant software for PK analysis, and the resulting terminal half-lives (harmonic mean) determined.
Setting [3] is: high HSA (2.0% final assay concentration), read-out: High HSA IC50.
Setting [4] is: low HSA (max. 0.001% final assay concentration), read-out: Low HSA IC50.

Each structure is given as a SMILES string. Where two headings read alike, the source gives them in different places.

T1 sequence (P43220 24-463): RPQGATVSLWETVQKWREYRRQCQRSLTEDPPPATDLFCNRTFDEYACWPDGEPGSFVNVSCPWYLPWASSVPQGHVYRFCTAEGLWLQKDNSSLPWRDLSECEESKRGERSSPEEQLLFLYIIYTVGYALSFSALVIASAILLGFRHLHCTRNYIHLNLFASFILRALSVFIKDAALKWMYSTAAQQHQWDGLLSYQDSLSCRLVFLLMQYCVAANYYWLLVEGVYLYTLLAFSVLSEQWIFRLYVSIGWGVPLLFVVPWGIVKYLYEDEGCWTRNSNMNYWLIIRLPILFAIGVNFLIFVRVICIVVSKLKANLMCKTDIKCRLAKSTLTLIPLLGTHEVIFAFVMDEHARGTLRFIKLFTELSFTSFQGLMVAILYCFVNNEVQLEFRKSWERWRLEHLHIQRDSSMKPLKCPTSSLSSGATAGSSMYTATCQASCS

Consider `CC[C@H](C)[C@H](NC(=O)[C@H](Cc1ccccc1)NC(=O)[C@H](CCC(=O)O)NC(=O)[C@H](CCCNC(=N)N)NC(=O)[C@H](C)NC(=O)[C@H](C)NC(=O)[C@H](CCC(N)=O)NC(=O)[C@H](CCC(=O)O)NC(=O)[C@H](CCC(=O)O)NC(=O)[C@H](CC(C)C)NC(=O)[C@H](Cc1ccc(O)cc1)NC(=O)[C@H](CO)NC(=O)[C@H](CO)NC(=O)[C@@H](NC(=O)[C@H](CC(=O)O)NC(=O)[C@H](CO)NC(=O)[C@@H](NC(=O)[C@H](Cc1ccccc1)NC(=O)[C@@H](NC(=O)CNC(=O)[C@H](CCC(=O)O)NC(=O)C(C)(C)NC(=O)[C@@H](N)Cc1c[nH]cn1)[C@@H](C)O)[C@@H](C)O)C(C)C)C(=O)N[C@@H](C)C(=O)N[C@@H](Cc1c[nH]c2ccccc12)C(=O)N[C@@H](CC(C)C)C(=O)N[C@H](C(=O)N[C@@H](CCCNC(=N)N)C(=O)NCC(=O)N[C@@H](CCCNC(=N)N)C(=O)N[C@@H](CCCCNC(=O)CN(CCCNC(=O)COCCOCCNC(=O)COCCOCCNC(=O)COCCOCCNC(=O)COCCOCCNC(=O)[C@@H](N)CCCCNC(=O)[C@@H](N)CCCCNC(=O)CCCCCCCCCCCCCCCCCCC(=O)O)CCCNC(=O)COCCOCCNC(=O)COCCOCCNC(=O)COCCOCCNC(=O)COCCOCCNC(=O)[C@@H](N)CCCCNC(=O)[C@@H](N)CCCCNC(=O)CCCCCCCCCCCCCCCCCCC(=O)O)C(=O)O)C(C)C` [Example 2, N{Epsilon-37}-[2-[bis[3-[[2-[2-[2-[[2-[2-[2-[[2-[2-[2-[[2-[2-[2-[[(2S)-2-amino-6-[[(2S)-2-amino-6-(19-carboxynonadecanoylamino)hexanoyl]amino]hexanoyl]amino]ethoxy]ethoxy]acetyl]amino]ethoxy]ethoxy]acetyl]amino]ethoxy]ethoxy]acetyl]amino]ethoxy]ethoxy]acetyl]amino]propyl]amino]acetyl]-[Aib8,Glu22,Arg26,Arg34,Lys37]-GLP-1-(7-37)-peptide], for which the IC50 (in general, the concentration needed to halve the response being measured) in data set [1] (setting [3]) came to 11000 pM; in data set [1] (setting [4]), 190 pM. Moreover, in data set [2], the half-life (usually the time in which the quantity being followed falls by half) is 113 h.
`CC[C@H](C)[C@H](NC(=O)[C@H](Cc1ccccc1)NC(=O)[C@H](CCC(=O)O)NC(=O)[C@H](CCCNC(=N)N)NC(=O)[C@H](C)NC(=O)[C@H](C)NC(=O)[C@H](CCC(N)=O)NC(=O)[C@H](CCC(=O)O)NC(=O)[C@H](CCC(=O)O)NC(=O)[C@H](CC(C)C)NC(=O)[C@H](Cc1ccc(O)cc1)NC(=O)[C@H](CO)NC(=O)[C@H](CO)NC(=O)[C@@H](NC(=O)[C@H](CC(=O)O)NC(=O)[C@H](CO)NC(=O)[C@@H](NC(=O)[C@H](Cc1ccccc1)NC(=O)[C@@H](NC(=O)CNC(=O)[C@H](CCC(=O)O)NC(=O)C(C)(C)NC(=O)CCc1cnc[nH]1)[C@@H](C)O)[C@@H](C)O)C(C)C)C(=O)N[C@@H](C)C(=O)N[C@@H](Cc1c[nH]c2ccccc12)C(=O)N[C@@H](CC(C)C)C(=O)N[C@H](C(=O)N[C@@H](CCCNC(=N)N)C(=O)NCC(=O)N[C@@H](CCCNC(=N)N)C(=O)N[C@@H](CCCCNC(=O)CN(CCCNC(=O)COCCOCCNC(=O)COCCOCCNC(=O)COCCOCCNC(=O)COCCOCCNC(=O)[C@@H](N)CCCCNC(=O)[C@@H](N)CCCCNC(=O)CCCCCCCCCCCCCCCCCCC(=O)O)CCCNC(=O)COCCOCCNC(=O)COCCOCCNC(=O)COCCOCCNC(=O)COCCOCCNC(=O)[C@@H](N)CCCCNC(=O)[C@@H](N)CCCCNC(=O)CCCCCCCCCCCCCCCCCCC(=O)O)C(=O)O)C(C)C` [Example 4]: in data set [1] (setting [4]), the IC50 is 130 pM. Further, the half-life in data set [2] was 243 h.
Regarding `CC[C@H](C)[C@H](NC(=O)[C@H](Cc1ccccc1)NC(=O)[C@H](CCC(=O)O)NC(=O)[C@H](CCCNC(=N)N)NC(=O)[C@H](C)NC(=O)[C@H](C)NC(=O)[C@H](CCC(N)=O)NC(=O)[C@H](CCC(=O)O)NC(=O)[C@H](CCC(=O)O)NC(=O)[C@H](CC(C)C)NC(=O)[C@H](Cc1ccc(O)cc1)NC(=O)[C@H](CO)NC(=O)[C@H](CO)NC(=O)[C@@H](NC(=O)[C@H](CC(=O)O)NC(=O)[C@H](CO)NC(=O)[C@@H](NC(=O)[C@H](Cc1ccccc1)NC(=O)[C@@H](NC(=O)CNC(=O)[C@H](CCC(=O)O)NC(=O)C(C)(C)NC(=O)[C@@H](N)Cc1c[nH]cn1)[C@@H](C)O)[C@@H](C)O)C(C)C)C(=O)N[C@@H](C)C(=O)N[C@@H](Cc1c[nH]c2ccccc12)C(=O)N[C@@H](CC(C)C)C(=O)N[C@H](C(=O)N[C@@H](CCCNC(=N)N)C(=O)NCC(=O)N[C@@H](CCCNC(=N)N)C(=O)N[C@@H](CCCCNC(=O)COCCOCCNC(=O)COCCOCCNC(=O)COCCOCCNC(=O)COCCOCCNC(=O)COCCOCCNC(=O)COCCOCCNC(=O)CN(CCCNC(=O)CC[C@H](NC(=O)CCCCCCCCCCCCCCCCCCC(=O)O)C(=O)O)CCCNC(=O)CC[C@H](NC(=O)CCCCCCCCCCCCCCCCCCC(=O)O)C(=O)O)C(=O)O)C(C)C` [Example 26, N{Epsilon-37}-[2-[2-[2-[[2-[2-[2-[[2-[2-[2-[[2-[2-[2-[[2-[2-[2-[[2-[2-[2-[[2-[bis[3-[[(4S)-4-carboxy-4-(19-carboxynonadecanoylamino)butanoyl]amino]propyl]amino]acetyl]amino]ethoxy]ethoxy]acetyl]amino]ethoxy]ethoxy]acetyl]amino]ethoxy]ethoxy]acetyl]amino]ethoxy]ethoxy]acetyl]amino]ethoxy]ethoxy]acetyl]amino]ethoxy]ethoxy]acetyl]-[Aib8,Glu22,Arg26,Arg34,Lys37]-GLP-1-(7-37)-peptide], the half-maximal inhibitory concentration (IC50) in data set [1] (setting [3]) came out at 29000 pM; in data set [1] (setting [4]), 360 pM. The compound further had a half-life in data set [2] of 131 h.
For `CC[C@H](C)[C@H](NC(=O)[C@H](Cc1ccccc1)NC(=O)[C@H](CCC(=O)O)NC(=O)[C@H](CCCNC(=N)N)NC(=O)[C@H](C)NC(=O)[C@H](C)NC(=O)[C@H](CCC(N)=O)NC(=O)[C@H](CCC(=O)O)NC(=O)[C@H](CCC(=O)O)NC(=O)[C@H](CC(C)C)NC(=O)[C@H](Cc1ccc(O)cc1)NC(=O)[C@H](CO)NC(=O)[C@H](CO)NC(=O)[C@@H](NC(=O)[C@H](CC(=O)O)NC(=O)[C@H](CO)NC(=O)[C@@H](NC(=O)[C@H](Cc1ccccc1)NC(=O)[C@@H](NC(=O)CNC(=O)[C@H](CCC(=O)O)NC(=O)C(C)(C)NC(=O)[C@@H](N)Cc1c[nH]cn1)[C@@H](C)O)[C@@H](C)O)C(C)C)C(=O)N[C@@H](C)C(=O)N[C@@H](Cc1c[nH]c2ccccc12)C(=O)N[C@@H](CC(C)C)C(=O)N[C@H](C(=O)N[C@@H](CCCNC(=N)N)C(=O)NCC(=O)N[C@@H](CCCNC(=N)N)C(=O)N[C@@H](CCCCNC(=O)CN(CCCNC(=O)COCCOCCNC(=O)COCCOCCNC(=O)COCCOCCNC(=O)COCCOCCNC(=O)COCCOCCNC(=O)[C@@H](N)CCCCNC(=O)[C@@H](N)CCCCNC(=O)CCCCCCCCCCCCCCCCCCC(=O)O)CCCNC(=O)COCCOCCNC(=O)COCCOCCNC(=O)COCCOCCNC(=O)COCCOCCNC(=O)COCCOCCNC(=O)[C@@H](N)CCCCNC(=O)[C@@H](N)CCCCNC(=O)CCCCCCCCCCCCCCCCCCC(=O)O)C(=O)O)C(C)C` [Example 1, N{Epsilon-37}-[2-[bis[3-[[2-[2-[2-[[2-[2-[2-[[2-[2-[2-[[2-[2-[2-[[2-[2-[2-[[(2S)-2-amino-6-[[(2S)-2-amino-6-(19-carboxynonadecanoylamino)hexanoyl]amino]hexanoyl]amino]ethoxy]ethoxy]acetyl]amino]ethoxy]ethoxy]acetyl]amino]ethoxy]ethoxy]acetyl]amino]ethoxy]ethoxy]acetyl]amino]ethoxy]ethoxy]acetyl]amino]propyl]amino]acetyl]-[Ab8,Glu22,Arg26,Arg34,Lys37]-GLP-1-(7-37)-peptide], in data set [2], the half-life is 130 h.
`CC[C@H](C)[C@H](NC(=O)[C@H](Cc1ccccc1)NC(=O)[C@H](CCC(=O)O)NC(=O)[C@H](CCCNC(=N)N)NC(=O)[C@H](C)NC(=O)[C@H](C)NC(=O)[C@H](CCC(N)=O)NC(=O)[C@H](CCC(=O)O)NC(=O)[C@H](CCC(=O)O)NC(=O)[C@H](CC(C)C)NC(=O)[C@H](Cc1ccc(O)cc1)NC(=O)[C@H](CO)NC(=O)[C@H](CO)NC(=O)[C@@H](NC(=O)[C@H](CC(=O)O)NC(=O)[C@H](CO)NC(=O)[C@@H](NC(=O)[C@H](Cc1ccccc1)NC(=O)[C@@H](NC(=O)CNC(=O)[C@H](CCC(=O)O)NC(=O)C(C)(C)NC(=O)[C@@H](N)Cc1c[nH]cn1)[C@@H](C)O)[C@@H](C)O)C(C)C)C(=O)N[C@@H](C)C(=O)N[C@@H](Cc1c[nH]c2ccccc12)C(=O)N[C@@H](CC(C)C)C(=O)N[C@H](C(=O)N[C@@H](CCCNC(=N)N)C(=O)NCC(=O)N[C@@H](CCCNC(=N)N)C(=O)N[C@@H](CCCCNC(=O)CN(CCCNC(=O)CCOCCOCCOCCOCCNC(=O)CCOCCOCCOCCOCCNC(=O)CCOCCOCCOCCOCCNC(=O)[C@@H](N)CCCCNC(=O)[C@@H](N)CCCCNC(=O)CCCCCCCCCCCCCCCCCCC(=O)O)CCCNC(=O)CCOCCOCCOCCOCCNC(=O)CCOCCOCCOCCOCCNC(=O)CCOCCOCCOCCOCCNC(=O)[C@@H](N)CCCCNC(=O)[C@@H](N)CCCCNC(=O)CCCCCCCCCCCCCCCCCCC(=O)O)C(=O)O)C(C)C` [Example 5, N{Epsilon-37}-[2-[bis[3-[3-[2-[2-[2-[2-[3-[2-[2-[2-[2-[3-[2-[2-[2-[2-[[(2S)-2-amino-6-[[(2S)-2-amino-6-(19-carboxynonadecanoylamino)hexanoyl]amino]hexanoyl]amino]ethoxy]ethoxy]ethoxy]ethoxy]propanoylamino]ethoxy]ethoxy]ethoxy]ethoxy]propanoylamino]ethoxy]ethoxy]ethoxy]ethoxy]propanoylamino]propyl]amino]acetyl]-[Aib8,Glu22,Arg26,Arg34,Lys37]-GLP-1-(7-37)-peptide] gave a half-life in data set [2] of 122 h.

Source of the values: patent US11572398B2, “GLP-1 derivatives and uses thereof” (Novo Nordisk A/S, priority 2014, dated 2023).
